Entries after “also recorded” stand apart in the source; their conditions may differ. One block for each molecule: values may come before it.
Assays:
murine neutrophils = assay: Phage-display screening of a peptide library on murine neutrophils; assay type: binding, mouse; conditions: prevalence in the final eluate, average of 5 replicates
Method: A phage-display screening of a peptide library was conducted, in a similar way to a screen conducted by Mazzucchelli et al. (Blood, 1999, 93(5), 1738-1748). In the present screen, a library of pages displaying 10^12 different peptides on their VIII protein was used to identify peptides that bind to murine neutrophils. The peptides in the library were random sequences of 6-12 amino acids in linear or cyclic form (Ryvkin et al., 2018, Nucleic Acids Research, 2018, Vol. 46, No. 9 e52). The screen was conducted using murine Normal-Density Neutrophils (NDN) for positive selection, whereas monocytes and lymphocytes served for negative selection. Following 3 rounds of positive panning and 2 interlaced rounds of negative panning, the neutrophil affinity selected phages were eluted and sequenced (FIG. 11). The top-ranking enriched peptide sequences and their prevalence in the final eluate (average of 5 replicates) are presented in Table 3.

other WBC = assay: LQI tetramer alone or 16-LQI binding to WBCs, flow cytometry; parameters: species or system mouse; conditions: WBCs from 4T1-tumor bearing mice, 30 min at 4° C.
Method: (§1) After washing, the cells were stained with 50 μl 3.3 μg/ml of Streptavidin-Cy3 (SA-Cy3).
(§2) “Tetramer-Streptavidin Complex”:1 μl of the 309 μM stock solution of the tetrameric peptide was preincubated with 300 μl of 3.3 μg/ml SA-Cy3 for 30 min at RT. 100 μl of LQI tetramer-SA-Cy3 mix was then used to stain 0.5×10^6 cells.
(§3) The cells were washed and analyzed by flow cytometry.

neutrophils [1] = assay: as above; parameters: species or system mouse; conditions: WBCs from 4T1-tumor bearing mice, 30 min at 4° C.
Method: as §1, §2, §3

circulating neutrophils = assay: Ex vivo binding to circulating neutrophils of healthy and tumor bearing mice; parameters: species or system mouse
Method: 0.5×10^6 purified HDNs were stained in 100 μl of preincubated 3.3 μg/ml 16-LQI-Cy3 solution for 30 min at 4° C. […] After staining, cells were washed and analyzed by flow cytometry.

CD177 [2] = target: T1, CD177 (Mus musculus, UniProt Q8R2S8); assay: STORM imaging of CD177 and 16-LQI on a neutrophil; assay type: binding; parameters: endogenous in cells; host or cells: murine neutrophils
T1 sequence (Q8R2S8 22-817): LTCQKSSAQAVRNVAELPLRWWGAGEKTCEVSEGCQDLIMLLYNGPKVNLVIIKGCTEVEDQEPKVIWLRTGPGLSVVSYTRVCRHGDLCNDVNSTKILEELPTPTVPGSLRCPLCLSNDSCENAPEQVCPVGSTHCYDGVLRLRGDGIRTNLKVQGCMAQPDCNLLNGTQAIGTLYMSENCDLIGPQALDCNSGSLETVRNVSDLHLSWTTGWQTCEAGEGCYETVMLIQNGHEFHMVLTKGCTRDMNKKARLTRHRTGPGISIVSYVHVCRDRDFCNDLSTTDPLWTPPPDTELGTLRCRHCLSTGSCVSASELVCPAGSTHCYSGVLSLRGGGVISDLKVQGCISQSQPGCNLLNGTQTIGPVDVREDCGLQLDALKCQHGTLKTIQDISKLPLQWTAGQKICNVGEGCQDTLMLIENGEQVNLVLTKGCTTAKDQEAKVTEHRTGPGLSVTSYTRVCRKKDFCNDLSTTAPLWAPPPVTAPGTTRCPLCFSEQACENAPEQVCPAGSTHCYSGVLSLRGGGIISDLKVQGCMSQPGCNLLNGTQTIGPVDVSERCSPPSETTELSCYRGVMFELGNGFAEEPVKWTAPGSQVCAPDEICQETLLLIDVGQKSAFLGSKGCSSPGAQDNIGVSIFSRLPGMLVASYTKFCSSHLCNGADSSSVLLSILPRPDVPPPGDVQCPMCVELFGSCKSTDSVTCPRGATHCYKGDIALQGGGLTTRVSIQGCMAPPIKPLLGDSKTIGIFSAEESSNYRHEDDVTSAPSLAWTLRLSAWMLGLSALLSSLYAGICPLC
From the text: (§4) (21C-D) Representative dot plots of isolated WBC stained with (21C) Ly6G and CD177 or (21D) CD177 and 16-LQI. […] (21F) Representative STORM imaging of a single neutrophil with staining of CD177 (green) and 16-LQI (red), overlay with brightfield (left) or DAPI staining of nucleus (right). (21G) Quantification of CD177 and 16-LQI interaction for image depicted in (E) using the ImageJ Interaction Factor plugin.

[3] = system: murine neutrophils (HDNs from 4T1-tumor bearing mice); assay: Titration of binding to purified HDNs, flow cytometry; parameters: species or system mouse
Method: Analysis was performed by flow cytometry.

[4] = system: circulating CD177+ cells (neutrophils); assay: Flow cytometry of WBC stained for CD177 and 16-LQI; assay type: binding, mouse
From the text: as §4

neutrophils [5] = assay: Doublet analysis of flow cytometry data for crosslinking of neutrophils; assay type: cell-based, mouse
Method: In order to rule out that there is a crosslinking between neutrophils when incubating with the LQI tetramer-SA-complex, flow cytometry data was analyzed to assess if there was an increase in doublet cells after incubation with the LQI tetramer-SA-complex. It is possible to examine the light scatter plots and compare the height signal of a voltage pulse (SSC-H, FSC-H) to the area values (SSC-A, FSC-A; A=Height*Width). If a doublet passes the laser beam in the flow cytometer, the width of the pulse signal (corresponds to time) will increase and therefore the value for the area (SSC-A and FSC-A) will increase. By comparing e.g. SSC-H and SSC-A it is possible to identify doublets because they are outliers in the blot.

neutrophils [6] = assay: Confocal imaging of 16-LQI with Gr-1 neutrophils; assay type: cell-based, mouse
Method: FIGS. 2A-I: (2A) Schematic representation of the structure of a tetrameric LQI. […] (2E) Representative histogram showing the percent binding of 16-LQI to each WBC population in healthy Balb/C mice following ex vivo incubation and staining with Streptavidin-Cy3, as analyzed by flow cytometry. *=gating based on light scatter. […] Ly6G^+ population represent HDN and Ly6G− cells are other WBCs. […] (2I) Representative image of confocal microscopy with Gr-1 neutrophils (green) bound by the 16-LQI (red).

monocytes or lymphocytes = assay: Binding of peptide-presenting phage to WBC of 4T1 tumor bearing mice (anti-M13 PE, flow cytometry); parameters: species or system mouse; conditions: phage presenting the peptide
Method: (§5) FIGS. 1A-D: Validation of Phage Binding of Highest-Ranking Peptides Sequences Selected on Mouse Neutrophils. […] (SEQ ID NO: 9) peptide to neutrophils (Ly6G+CD11b+, red histogram) and other WBC (Ly6G−CD11b−, blue histogram) was evaluated using anti-M13 PE-labelled antibody and (1A) flow cytometry analysis or (1B) microscopy. (1C) Overview of LQI peptide constructs—the LQI peptide sequence on the phage is inserted within the protein VIII coat protein of the phage (LQI peptide in orange) and neighboring amino acid residues are depicted (recombinant LQI pVIII). An unlabeled, Cy5-labeled, biotin-labeled and the LQI peptide construct including neighboring amino acids from coat protein VIII as well as a glycine linker and fluorescein, were generated and tested for binding. (1D) Competition assay of LQI phage binding and LQI peptide constructs. Neutrophils were incubated with the LQI-presenting phage (black line) alone or with the LQI-presenting phage and different LQI peptide constructs at the same time (blue line). Phage binding to neutrophils was quantified using anti-M13-PE antibody (only M13-PE=dotted line).
(§6) The peptide having the best binding obtained in the screening was the peptide LQI, consisting of the amino acid sequence […] (SEQ ID NO: 9).

[7] = system: neutrophils (Ly6G+CD11b+); assay: as above; parameters: species or system mouse; conditions: phage presenting the peptide
Method: as §5, §6

[8] = system: murine neutrophils (HDNs from 4T1 tumor bearing Balb/C mice); assay: Competition assay of LQI phage binding with synthetic LQI peptide constructs; parameters: species or system mouse; conditions: peptide 20 min, then 10^10 LQI phages; M13-PE flow cytometry
Method: Several LQI monomeric peptide conjugates were synthesized by tagging the N-terminus of LQI peptide with Cy5, biotin or fluorescein (FIG. 1C). Competition assays were then performed in order to evaluate the binding of LQI and its conjugates to murine neutrophils. For the competition assays, 1×10^6 density-gradient purified HDNs from 4T1 tumor bearing Balb/C mice were incubated first with each of the synthetic peptides for 20 min, and later incubated with 10^10 phages presenting the LQI peptide on their surface. Phage binding was detected by flow cytometry with a M13-PE antibody.

murine CD177 = target: T2, murine CD177 (Mus musculus, UniProt Q8R2S8); assay: Binding to HEK293T cells ectopically expressing CD177; conditions: control versus CD177-overexpressing cells
T2 construct: expressed in transfected cells; host or cells: HEK293T
T2 sequence (Q8R2S8 22-817): T1 sequence (Q8R2S8 22-817)

[9] = system: PMA stimulated ROS production in neutrophils; assay: PMA induced ROS production after pretreatment with DPI or loaded nanoparticles; assay type: cell-based; conditions: pretreated 3 hrs with 10 ul NP or 1 uM free DPI, then 50 nM PMA
Method: PLGA NPs are known to gradually degrade within the cell, releasing any encapsulated payload. Therefore, whether neutrophil degranulation ROS production could be modulated by encapsulating small molecule inhibitors within neutrophil specific NPs (NSNPs) was tested. […] DPI was loaded in the LQI-coated nanoparticles using a single emulsion encapsulation process. Then, neutrophils were pretreated for 3 hrs with 10 ul empty NP (Empty NP), 10 ul DPI-loaded NP (NP+DPI) or 1 uM free DPI. After one wash, neutrophils were stimulated with 50 nM PMA to induce ROS production. Positive control for PMA induction were neutrophils pretreated with vehicle (empty NP). Negative control (Cont.) were untreated neutrophils.

CD177 [10] = target: T1, CD177; conditions: neutrophil lysate 3 h, mass spectrometry
Method: After washing, the bound proteins were eluted by incubating the beads for 10 min at 95° C. in protein sample buffer containing beta-mercaptoethanol. The gel was stained using silver staining. Lanes of the eluates of peptide- and control-beads were cut out and analyzed by mass spectrometry.

[11] = system: 4T1 cancer cells co-cultured with HDNs
Method: In vitro luciferase assay to monitor the anti-tumor activity of isolated neutrophils (‘Killing Assay’): 5,000 luciferase-labeled 4T1 breast carcinoma cells were seeded in 100 μl OptiMem medium containing 2% heat-inactivated FCS in each well of a white 96-flat-bottom well plate. 24 hours after seeding the tumor cells, 1×10^5 HDNs purified from the circulation of 4T1-tumor-bearing mice were added in 50 μl OptiMem with 2% FCS. The co-culture was incubated overnight. Control wells were incubated in 50 μl medium without neutrophils. Multiple repeats (12 wells) were done of each experimental setting. The supernatant was aspirated and 50 μl of cell culture lysis buffer were added (Promega). The plate was incubated for 15 min on an orbital shaker and then read in the plate-reader. Well-wise 50 μl of in-house prepared luciferase assay solution was injected during the measurement, and chemiluminescence was read for 10 sec per well. % tumor lysis was calculated by the following formula: % tumor lysis=(1−[luminescence of samples with neutrophils]/[luminescence of samples in medium])×100%.
In more details, 5.000 luciferase-labeled 4T1 breast carcinoma cells were cultured for 18 hours. […] The next day, luciferin dependent chemiluminescence was measured and the percentage of killing was calculated compared to control wells that were not cultured with HDNs. […]

[12] = system: tumor-associated neutrophils (TANs); conditions: TANs from 4T1 tumors, 30 min at 4° C.
From the text: After staining, cells were washed and analyzed by flow cytometry.

[13] = system: neutrophils (HDNs) from 4T1 tumor bearing Balb/C mice
Method: 800 μl of 2% FCS/RPMI medium were placed into the 24-well plate, then Millicell® cell culture inserts with a pore size of […] were placed into the wells and allowed to soak for 5 min. HDNs were suspended to a density of 250,000 cells/ml in 2% FCS/RPMI and 200 μl of the cell suspension were placed into the upper chamber of the transwell insert. Migration was stimulated by addition of […] CXCL2 to the bottom chamber of the wells (consider V=800 μl), and peptide was added to HDN in the upper chamber in two different concentrations (3.09 μM or 309 nM considering […]). Assay was stopped after 1.5 hr and inserts were removed with a forceps. Each condition was tested in triplicate. 5 pictures were taken per well at the same coordinates (middle, top, bottom, left, right). Cells per field of view were counted using ImageJ.
The purified HDNs were placed in the upper chamber of a transwell (pore size 5 μm) in 2% FCS/RPMI medium. The lower chamber contained either only 2% FCS/RPMI medium or the chemokine CXCL2 to induce neutrophil migration. […] The assay was stopped after 1.5 h incubation, five pictures of each well were taken, counted and averaged. The experiment was done in triplicates.

Molecule: STMTILGTGS
Prevalence (%) (murine neutrophils): 10.4%

Molecule: 16-LQI: LQI tetramer-streptavidin (SA) complex, a 16-mer of the LQI-peptide [Peptide 16-LQI]
binding to other WBC (other WBC): ~10%
binding of neutrophils (neutrophils [1]): 100%
specificity to circulating neutrophils (Ly6G+ cells) (circulating neutrophils; mice bearing 4T1 tumors): strong specificity
binding to circulating neutrophils (circulating neutrophils; neutrophils isolated from healthy mice, ex vivo): 87%
clusters in which CD177 and 16-LQI signals overlap (CD177 [2]): > 90%
affinity for neutrophils relative to LQI-tetramer alone [3]: more than 75 times
binding to circulating CD177+ cells [4]: all circulating CD177+ cells (neutrophils) bind
percentage of doublets versus cells stained with only SA-Cy3 (neutrophils [5]): Differences were not detected
uptake seen by confocal imaging (neutrophils [6]): engulfed specifically by neutrophils

Molecule: LSIVSGSALNHL
Prevalence (%) (murine neutrophils): 2.9%

binding of phage to monocytes or lymphocytes (monocytes or lymphocytes): no detectable binding
Molecule: LQIQSWSSSP
binding of phage to neutrophils [7]: 95%
competition with LQI phage binding to neutrophils [8]: able to compete with the phage binding to neutrophils
binding to HEK293T cells (murine CD177): binds only to HEK293T cells ectopically expressing the murine CD177
Prevalence (%) (murine neutrophils): 28.4%

Molecule: c1ccc2c(c1)[I+]c1ccccc1-2 [DPI, diphenyleneiodonium chloride]
effect on PMA stimulated ROS production [9]: efficiently blocked; also recorded: completely blocked ROS production

Molecule: (LQIQSWSSSP (SEQ ID NO: 9) Doa-Doa-C)4-(Mpa)-4-Lys2-Lys-beta-Ala-Lys(Biotin)-beta-Ala-OH [LQI tetramer]
peptide/control ratio of CD177 in pulldown (CD177 [10]): 7.89
effect on the ability of HDNs to kill cancer cells [11]: does not affect the ability of HDNs to kill cancer cells
binding to other WBC (other WBC): ~50%
binding of neutrophils (neutrophils [1]): ~100%
binding efficiency to TANs [12]: 98%
binding to the different types of neutrophils (circulating neutrophils; summary FIG. 2H): very high efficiency
Kd ([3]; purified HDNs, flow cytometry): 3.3 µM
effect on neutrophil migration ([13]; 3.09 μM and 309 nM in upper chamber, CXCL2 in lower chamber, 1.5 h): no significant effect on neutrophil migration
chemoattractant activity ([13]; migration towards media containing LQI-tetramer): does not itself act as a chemoattractant

Molecule: TETSLRIVSTNP
Prevalence (%) (murine neutrophils): 4.1%

Molecule: LTLVSERPMI
Prevalence (%) (murine neutrophils): 1.5%

Reference: patent publication US11952431B2, “Neutrophil-binding peptides” (YISSUM RESEARCH DEVELOPMENT COMPANY OF THE HEBREW …, priority 2020, dated 2024)
